How the values were obtained:
Mcl-1 = Mcl-1 (Homo sapiens, UniProt Q07820); test: SPR binding to immobilized Mcl-1; conditions: analyte 0.3-30 µM
Procedure: (§1) FastStep experiments were performed with a SensiQ Pioneer apparatus. Bcl-2 immobilization on COOH5 sensorchips was carried out essentially as previously reported, [40]. All the experiments were carried out at 25 °C in degassed HEPES 20 mM, pH 7.4, NaCl 150 mM, 0.005% surfactant P20 + 2% DMSO (HBSP2%D). […] Each sensorgram is the average of at least three experiments. The decrease in Response Units (RU) after 165 s indicates analyte dissociation from the immobilized Bcl-2 upon HSBP2%D buffer injection. Control SPR experiments were carried out measuring sensorgrams on Bcl-xL and Mcl-1 (ligands) immobilized on COOH5 sensorchips as previously reported at 25 °C in degassed HBSP2%D buffer. […] Each sensorgram is the average of at least three experiments. The decrease in RU after 180 s indicates analyte dissociation from the immobilized ligands upon HSBP2%D buffer injection. Kinetic evaluation of the sensorgrams was carried out using the Qdat 4.0 program; best fittings were obtained with 2 sites and indicated in red (reported KD values refer to dissociation constants of the highest affinity site).
Figure 3 SPR analysis of the interaction between IS20 or IS21 and Bcl-xL and Mcl-1 proteins. SPR experiments were carried out measuring sensorgrams on Bcl-xL and Mcl-1 (ligands) immobilized on COOH5 sensorchips at 25 °C in degassed HBSP2%D buffer. IS20 and IS21 (analytes) were injected at a flow rate = 30 μL/min, at the following concentrations: 0.3 μM (only for Mcl-1 experiments); 1 μM; 3 μM; 10 μM; 30 μM. Each sensorgram is the average of at least three experiments. The decrease in RU (Response Units) after 180 s indicates analyte dissociation from the immobilized ligands upon HSBP2%D buffer injection. The fitted KD values for Bcl-xL are the following. IS20: 0.42 ± 0.09 μM and IS21: 0.51 ± 0.17 μM. The fitted KD values for Mcl-1are the following. IS20: 3.9 ± 0.30 μM and IS21: 1.16 ± 0.14 μM;

M14 cells [1] = test: Western blot of PARP1 cleavage, M14; type: cell-based, Human; conditions: 72 h
Procedure: (§2) Western blot analyses of total protein extracts were performed as previously described. Immunodetection was performed using antibodies directed to poly (ADP-ribose) polymerase (PARP; BD Biosciences San Diego, CA, USA), LC3B (Cell Signaling Technology, Danvers, MA), HSP72/73 (Calbiochem, EMD Biosciences, La Jolla, CA), Bcl-2 (SC-509, Santa Cruz Biotechnology Inc, Dallas, TX, USA), Bcl-xL (SC-271121, Santa Cruz Biotechnology Inc), Mcl-1 (SC-12756, Santa Cruz Biotechnology Inc) α-tubulin (Santa Cruz Biotechnology Inc) actin (Sigma-Aldrich, St. Louis, Missouri, USA). Anti-rabbit or anti-mouse immunoglobulin G-horseradish peroxidase-conjugated antibodies (Amersham Biosciences, Freiburg, Germany) were used as secondary antibody. Images were acquired by Image Lab Software (Bio-Rad, Hercules, CA, USA), using a ChemiDoc System instrument (Bio-Rad). The densitometric evaluation was performed using Image J software and normalized with relative controls.
Figure 5 Analysis of apoptosis induction by IS20 and IS21 in leukemia, melanoma and NSCLC cells. […] (A-F) Reported images are representative of two independent experiments with similar results. HSP72/73 or α-Tubulin are shown as loading and transferring control. (G) Flow cytometric quantification of cells in the subG1 peak of cell cycle distribution by propidium iodide staining in HL60 cell line treated with IS20 or IS21 (20 μM for 24 h) and in M14, H1299 and MDA-MB-231 cell lines treated with IS20 or IS21 (20 μM for 72 h). Data are reported as mean ± SD of three independent experiments. p-values were calculated between control (Ctrl) and treated cells, * p < 0.05. (H) Flow cytometric quantification of cells in the subG1 peak by propidium iodide staining in M14 and H1299 cell lines treated with IS20 or IS21 (20 μM, 72 h) in presence or absence of the pan caspase inhibitor z-VAD (50 μM). p-values were calculated between treated control (Ctrl) cells, # p < 0.01, ## p < 0.001 or between cells treated with IS20 or IS21 alone or in combination with z-VAD, * p < 0.05, ** p < 0.005. (G-H) Data are reported as mean of two (H) or three (G) experiments ± SD.

M14 cells [2] = test: Western blot of LC3B-I/LC3B-II (autophagy), M14; type: cell-based, Human; conditions: 72 h
Procedure: as §2
Figure 6 Analysis of autophagosome accumulation in M14 and H1299 cells after treatment with IS20 or IS21. Western blot analysis of LC3B-I and LC3B-II protein levels in (A) M14, and (B) H1299 cell lines untreated (Ctrl) or treated with IS20 or IS21 for 72 h at the indicated concentrations. (C) Western blot analysis of LC3B-I and LC3B-II levels in HL60 and U937 cell lines untreated (Ctrl) or treated with IS20 or IS21 (20 μM for 24 h). (A-C) Reported images are representative of two independent experiments with similar results. HSP72/73, Actin or α-Tubulin are shown as loading and transferring control. […] Ratio of LC3B-II on LC3B-I levels, after normalization on HSP72/73, Actin or α-Tubulin, is quantified by densitometric analysis. (D) (Upper panels) Representative images and (lower panels) relative quantification of fluorescence microscopic analysis of LC3B puncta positive cells in M14 EGFP-LC3B and H1299 EGFP-LC3B transfected cells, treated with IS20 or IS21 (20 µM for 72h). […] Cells with more than 10 puncta were considered autophagy-positive. p-values were calculated between untreated (Ctrl) and treated cells, * p < 0.05.

Bcl-2 = Bcl-2 (Homo sapiens, UniProt P10415); test: SPR binding to immobilized Bcl-2; conditions: SPR, 25 °C, 2-site fit, highest affinity site
Chain of Bcl-2 (P10415 whole entry): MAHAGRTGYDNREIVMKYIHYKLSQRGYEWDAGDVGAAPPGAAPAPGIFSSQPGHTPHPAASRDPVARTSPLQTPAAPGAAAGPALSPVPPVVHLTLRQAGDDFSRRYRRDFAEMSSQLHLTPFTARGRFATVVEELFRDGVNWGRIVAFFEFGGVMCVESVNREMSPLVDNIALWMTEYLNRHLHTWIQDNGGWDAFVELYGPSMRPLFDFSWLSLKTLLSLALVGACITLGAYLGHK
Procedure: as §1
Figure 2 SPR analysis of the interaction between putative inhibitors of Bcl-2 anti-apoptotic members and Bcl-2 protein. Bcl-2 was immobilized via amine coupling onto a COOH5 sensorchip; Bcl-2 family inhibitors (analytes) were injected at a flow rate = 100 μL/min, at the following concentrations. 0-30 s: 0.625 μM; 31-60 s: 1.25 μM; 61-90 s: 2.5 μM; 91-120 s: 5 μM; 121-150 s: 10 μM; 151-165 s: 20 μM. The increase in Response Units (RU) relative to baseline indicates complex formation between the immobilized Bcl-2 ligand and the analytes upon Bcl-2 family inhibitors injection. The decrease in RU after 165 s indicates analyte dissociation from the immobilized Bcl-2 upon buffer injection. Full fittings with 2 sites are indicated in red. The fitted KD values are the following.

Chain of Mcl-1 (Q07820 whole entry): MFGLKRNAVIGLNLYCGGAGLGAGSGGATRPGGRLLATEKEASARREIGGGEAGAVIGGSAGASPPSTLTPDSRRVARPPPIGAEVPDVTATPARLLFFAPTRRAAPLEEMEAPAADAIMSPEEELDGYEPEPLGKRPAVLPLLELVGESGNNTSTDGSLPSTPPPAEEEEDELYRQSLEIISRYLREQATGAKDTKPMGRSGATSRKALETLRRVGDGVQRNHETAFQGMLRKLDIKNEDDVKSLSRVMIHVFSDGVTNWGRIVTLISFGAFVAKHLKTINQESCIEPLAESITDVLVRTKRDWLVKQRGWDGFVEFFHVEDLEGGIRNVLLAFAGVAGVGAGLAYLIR

| Kd (Bcl-2) | Compound | PARP1 cleavage, M14 (M14 cells [1]) | further results |
| --- | --- | --- | --- |
| – | CC1(C)CCC(CN2CCN(c3ccc(C(=O)NS(=O)(=O)c4ccc(NCC5CCOCC5)c([N+](=O)[O-])c4)c(Oc4cnc5[nH]ccc5c4)c3)CC2)=C(c2ccc(Cl)cc2)C1 [ABT-199, venetoclax, reference compound] | PARP1 cleavage | interaction with Mcl-1 (SPR) (Mcl-1): negligible interaction |
| – | CC1(C)CCC(c2ccc(Cl)cc2)=C(CN2CCN(c3ccc(C(=O)NS(=O)(=O)c4ccc(N[C@H](CCN5CCOCC5)CSc5ccccc5)c(S(=O)(=O)C(F)(F)F)c4)cc3)CC2)C1 [ABT-263, navitoclax, reference compound] | PARP1 cleavage | ratio of LC3B-II on LC3B-I / LC3B-II protein level, M14 (M14 cells [2]): increased |
| 480 ± 110 nM | CC(C)(C)c1ccc(C=NN2CCN(Cc3ccccc3Cl)CC2)cc1 [IS1] | – | – |
| 4600 ± 900 nM | O=C(CN1CCN(Cc2ccccc2Cl)CC1)N/N=C/c1ccccc1C(F)(F)F [IS27] | – | – |
| 3400 ± 1100 nM | CC(C)(C)c1ccc(-c2nnc(SCc3ccccc3F)n2N)cc1 [IS29] | – | – |
| 770 ± 140 nM | COc1ccc(-c2cc(C(F)F)nc(N3CCN(Cc4ccccc4C)CC3)n2)cc1OC [ISP] | – | – |

— publication PMC8899577, “Targeting the anti-apoptotic Bcl-2 family proteins: machine learning virtual screening and biological evaluation of new small molecules” (Theranostics, 2022)
